Assay results: patent US12371748B2, “Genetic markers for predicting responsiveness to therapy with HDL-raising or HDL mimicking agent” (Hoffmann-La Roche Inc., priority 2014, dated 2025)

Tests used:
[1] = humans; cited from earlier work
[2] = dal-OUTCOMES: change in plasma lipids by rs1967309 genotype; type: in vivo, human; details: for change in total cholesterol at 1 month: dalcetrapib arm
Procedure: All patients were following individualized programs to target LDL cholesterol levels of 100 mg per deciliter (2.6 mmol per liter) or lower by statin if tolerated and diet. No specific statin agent was specified, and patients were not excluded based on LDL cholesterol values. Patients with serum triglyceride levels of 400 mg per deciliter (4.5 mmol per liter) or higher were excluded. (Schwartz G G et al. N Engl J Med 2012; 367:2089-99) Eligible participants to the dal-Outcomes trial entered a single-blind placebo run-in period of approximately 4 to 6 weeks to allow for patients to stabilise and for completion of planned revascularisation procedures. At the end of the run-in period, eligible patients in stable condition were randomised in a 1:1 ratio to 600 mg of dalcetrapib or placebo on top of evidence-based medical care for acute coronary syndrome. Cardiovascular events were adjudicated by an independent clinical endpoint committee. For the pharmacogenomics study, 6338 patients were recruited from April 2008 through July 2010 at 461 sites in 14 countries and provided written informed consent to participate to the genetic study of the dal-OUTCOMES trial. DNA was extracted from whole blood. Following genomic data cleanup, samples from 5749 Caucasian patients were used for the discovery genome-wide association study (GWAS).
This effect was not observed in the placebo arm. […] During the dalcetrapib treatment period, GG carriers had overall slightly lower LDL-cholesterol levels (adjusted P=0.048; repeated measures analysis, FIG. 4).

In the case of `CCC(CC)CC1(C(=O)Nc2ccccc2SC(=O)C(C)C)CCCCC1` [dalcetrapib, thioisobutyric acid S-(2-{[1-(2-ethyl-butyl)-cyclohexanecarbonyl]-amino}-phenyl) ester], the LDL cholesterol [1] is listed as “decrease LDL cholesterol”, the “plasma HDL cholesterol” value [1] is listed as “increase plasma HDL cholesterol” and the “change in total cholesterol at 1 month” value ([2]; rs1967309 AA) is listed as 13.8 ± 24.0 mg/dL. The “change in total cholesterol at 1 month” value ([2]; rs1967309 AG) was 12.9 ± 30.3 mg/dL, the “change in total cholesterol at 1 month” value ([2]; rs1967309 GG) was 10.0 ± 23.3 mg/dL and the “change in LDL-cholesterol after 1 month of dalcetrapib treatment” value (“change in LDL-cholesterol after 1 month” for short) ([2]; rs1967309 AA) was “+0.6±21.0 mg/dl”. The “change in LDL-cholesterol after 1 month” value ([2]; rs1967309 AG) was -1.0 ± 20.0 mg/dL and the “change in LDL-cholesterol after 1 month” value ([2]; rs1967309 GG) was -2.0 ± 20.0 mg/dL.
